Experimental data reported in patent publication US7507749B2, “Antitumor agents” (priority 2001, dated 2009).
Read-outs that look alike come from different tables or passages of the source.

Key:
[1] = system: mammary adenocarcinoma-17/Adr; assay: Test D: racemic compound 22c against early stage mammary adenocarcinoma-17/Adr; assay type: in vivo; settings: for % Body Wt Loss at Nadir / % T/C mass / Activity Rating / Day of Nadir / Drug Deaths / Growth Delay / Log Kill / Median Tumor Mass on Day 10 (Range) / Tumor Free day-42: days 1,2,3,6,7,8
Description: Female C3H/HeN (MTV-neg) mice were obtained from N.C.I. Frederick (D.O.B. was Oct. 9, 2000; D.O.A. was Nov. 14, 2000). […] Then, P.B.S. was added, and the pH was adjusted to 7 with HCl. 0.2 ml per injection was administered IV.

colon carcinoma 26 = system: colon carcinoma 26
Description: In this trial the R-enantiomers of XK-469, compound 22c, and compound 22b were compared against advanced staged colon carcinoma 26 in female Balb/c mice. […] Cage #2 was 22b at 400 mg/kg and Cage #4 was 22c at 400 mg/kg.
The XK469-R, 22b, and 22c compound doses were all prepared the same, using 3% ethanol, 1% POE-80, and 0.5% sodium bicarbonate. The injection volume was 0.2 mu/mouse IV. […] The mice were Balb/c female mice: DOB Feb. 12, 2001; DOA Mar. 27, 2001; DOT Sep. 8, 2001, with an average body weight of 24.7 grams at the start of Rx administration. The tumor was Colon Carcinoma-26 passage 141; date of implant Sep. 8, 2001, and implanted at 30 to 60 mg fragments bilaterally SC. All tumors were 63 to 171 mg on day 6, the day of first Rx.

[2] = system: mammary adenocarcinoma-16/C; assay: Test F: R-enantiomers of 22b and 22c against early staged mammary adenocarcinoma-16/C; assay type: in vivo, C3H female mice
Description: C3H female mice were obtained from N.C.I. (D.O.B. was […]; D.O.A. was Jan. 27, 2001). The mice weighed an average of 19.2 gm. Mice were implanted SC with mammary adenocarcinoma-16/C passage-170, a fast growing, highly invasive, highly metastatic tumor (D.O.T. was Mar. 8, 2001; Td was 1.2 days).
The R-enantiomers of both Compound 22c and Compound 22b were each suspended in 3% ethanol, 1% POE-80, 0.5% sodium bicarbonate (by volume) to effect solution, P.B.S. was then added and the pH adjusted to 7 with HCl. Adriamycin (ADRIA; lot number 20338c) was suspended in dH2O to effect solution and the pH was adjusted to 6.0. Mice were administered 0.2 ml per IV injection.

[3] = system: pancreatic ductal adenocarcinoma-03; assay type: in vivo
Description: BDF1 female mice were obtained from N.C.I., CRL-Ral (D.O.B. was Feb. 26, 2001; D.O.A. was Mar. 10, 2001). The mice weighed an average of 22.5 gm. Mice were implanted SC with pancreatic ductal adenocarcinoma-03 passage 143. (D.O.T. was May 29, 2001; Td was 2.3 days).
The R-enantiomer of compound 22c was suspended in 3% ethanol, 1% POE-80, 0.25% sodium bicarbonate (by volume) to effect solution. dH2O was then added, and the pH adjusted to 7 with HCl. […] The R-enantiomer of compound 22b was suspended in 3% ethanol, 1% POE-80, 0.5% sodium-bicarbonate (by volume) to effect solution. Then, dH2O was added, and the pH adjusted to 7.5 with HCl. […] Adriamycin (source ADRIA; lot 2033BC) was suspended in dH2O to effect solution, and the pH was 6.0.
Treatment began six days following implant, at which time the tumors were palpable size (126 mg median). The duration of treatment was prolonged (18 days) in order to obtain a clear separation in efficacy between the compounds.

[4] = Cage 3, IV 50, 62.5, then 60 mg/kg/inj, total 352.5 mg/kg
[5] = Cage 4, IV 30, 37.5, then 36 mg/kg/inj, total 211.5 mg/kg
[6] = Cg 5, IV 50 mg/kg/inj days 6,8,10,13,15, total 250 mg/kg
[7] = Cage 2, IV 65 mg/kg/inj qd 1-4, total 260 mg/kg
[8] = Cage 3, IV 65 mg/kg/inj days 1,3,5,7, total 260 mg/kg
[9] = Cage 3, IV 65 mg/kg/inj days 1,3,5,7, total 260 mg/kg, listed as R-enantiomer of compound 22c
[10] = Cage 4, IV 40 mg/kg/inj days 1,3,5,7, total 160 mg/kg
[11] = Cage 4, IV 40 mg/kg/inj days 1,3,5,7, total 160 mg/kg, listed as R-enantiomer of compound 22c
[12] = Cg 13 in table (Cage 12 in text), IV 80 mg/kg/inj days 6,9,12,15,18,21, total 480 mg/kg

## CC(Oc1ccc(Oc2ccc3ccc(Br)cc3n2)cc1)C(=O)O (racemic) [Racemic 22c, 2-[4-(7-bromoquinolin-2-yloxy)phenoxy]propanoic acid]
[1]; Cage 3, 60 to 62.5 mg/kg dose IV
  Duration of slowing of nerve conduction: approximately 10 minutes
[1]; Cage 3, 60 to 62.5 mg/kg dose IV, mild gait disturbance
  Neuromuscular toxicity: modest slowing of nerve conduction
[1]; [4]
  % Body Wt Loss at Nadir: −5.5%
  % T/C mass: 0%
  Activity Rating: ++++ (>2.8)
  Day of Nadir: 11 days
  Drug Deaths: 0/5
  Growth Delay: 14 days
  Log Kill: 4.2
  Median Tumor Mass on Day 10 (Range): 0 (0-63) mg
  Tumor Free day-42: 0/5
[1]; Cage 3, total 352.5 mg/kg IV
  Day tumors reached 1000 mg (range): 21 (range 19-42) day
[1]; [5]
  % Body Wt Loss at Nadir: −4.1%
  % T/C mass: 5.6%
  Activity Rating: ++++ (>2.8)
  Day of Nadir: 13 days
  Drug Deaths: 0/5
  Growth Delay: 10 days
  Log Kill: 3.0
  Median Tumor Mass on Day 10 (Range): 172 (0-344) mg
  Tumor Free day-42: 0/5
[1]; Cage 4, IV 30-37.5 mg/kg/inj, total 211.5 mg/kg
  Neuromuscular toxicity: no gait disturbance
[1]; Cage 4, total 211.5 mg/kg IV
  Day tumors reached 1000 mg (range): 17 (range 14-21) day
Colon carcinoma 26; Cage 4, 400 mg/kg, omitted from Table 8
  Toxicity of dose group: toxic
Colon carcinoma 26; [6]
  Activity Rating: ++++ (>2.8)
  CR's: 3/6
  tumor free survivors on day 55: 3/6

## C[C@@H](Oc1ccc(Oc2ccc3ccc(Br)cc3n2)cc1)C(=O)O [Compound R-22c]
[2]; [7]
  % Body Wt Loss at Nadir: −22.9%
  % T/C mass: toxic
  Activity Rating: toxic
  Cause of death: G.I. epithelial damage
  Day of Nadir: 6 days
  Drug Deaths: 5/5
  Growth Delay in Days: toxic
  Log Kill: toxic
  Median Tumor Mass on Day 10 (Range): toxic
  Median time for tumors to 1000 mg (range): toxic
  Neuromuscular toxicity: No neuromuscular toxicity
  Tumor Free day-155: 0/5
[2]; Cage 2, IV 65 mg/kg/inj qd 1-4, total 260 mg/kg, listed as R-enantiomer of compound 22c
  Drug Deaths: All the mice died
[2]; [8]
  % Body Wt Loss at Nadir: −8.3%
  % T/C mass: 4%
  Activity Rating: ++ (1.3-1.9)
  Day of Nadir: 9 days
  Day of full recovery of body weight: 12 days
  Drug Deaths: 0/5
  Growth Delay: 5.8 days
  Log Kill: 1.7
  Median Tumor Mass on Day 10 (Range): 63 mg
  Median time for tumors to 1000 mg (range): 15.3 (14-21.5) days
  Neuromuscular toxicity: no neuromuscular toxicity
  Tumor Free day-155: 0/5
[2]; [9]
  % Body Wt Loss at Nadir: −8.3%
  % T/C mass: 4%
  Drug Deaths: no deaths
[2]; [10]
  % Body Wt Loss at Nadir: +6.4%
  % T/C mass: 9%
  Activity Rating: ++ (1.3-1.9)
  Day of Nadir: 8 days
  Drug Deaths: 0/5
  Growth Delay: 4.7 days
  Log Kill: 1.4
  Median Tumor Mass on Day 10 (Range): 138 mg
  Median time for tumors to 1000 mg (range): 14.2 (12.5-16.7) days
  Tumor Free day-155: 1/5
[2]; [11]
  % Body Wt Loss at Nadir: +6.4%
  % T/C mass: 9%
[2]; whole trial (Test F), IV
  Neuromuscular toxicity: completely devoid of neuromuscular toxicity
[3]; Cage 12 in text, IV 80 mg/kg/inj, lasted only a few minutes
  Behavior post injection: agitated post IV injection
[3]; Cage 12 in text, IV 80 mg/kg/inj, total 480 mg/kg
  Neuromuscular toxicity: no neuromuscular toxicity
[3]; [12]
  % Body Wt change between day 6 and day 24: +5.9%
  % T/C mass: 2.8%
  Activity Rating: ++++ (>2.8)
  CR's: 3/4
  Drug Deaths: 0/4
  Growth Delay: 23.5 days
  Log Kill: 3.1
  Median Tumor Mass on Day 24 (Range): 63 mg
  Median time for tumors to 1,000 mg (range): 40 days
  PR's: 3/4
  Tumor Free day-157: 0/4
Colon carcinoma 26; [6]
  Drug Deaths: 0/6
Colon carcinoma 26; mouse, in vivo
  % Body Wt change at nadir: −8.1% (17)
  Activity Rating: ++++ (key: ++++: >2.8; +++: 2.0-2.8; ++: 1.3-1.9; +: 0.7-1.2; −: <0.7)
  CR's: 3/6
  Growth Delay in Days: 3/6
  Log Kill: >3.5
  Median time for tumors to 700 mg (range): 3/6 tumor free
  PR's: 3/6
  Tumor Free day-156: 3/6
  day of nadir: −8.1% (17) day
